tested on: Vesicular stomatitis virus; test: Antiviral activity against Vesicular stomatitis virus at 0.2 to 620 uM after 24 hrs post infection relative to control; type: functional

Row | SMILES | Activity [%]
1 | O=C(CN1CCOCC1)N/N=C1/C(=O)Nc2ccc3ccccc3c21 | 15
2 | CN1CCN(CCn2c3ccc4ccccc4c3c3nc4ccccc4nc32)CC1 | 17
3 | CN(C)CCn1c2ccc3ccccc3c2c2nc3ccccc3nc21 | 21
4 | CN(C)CCOCCn1c2ccccc2c2nc3ccccc3nc21 | 32
5 | OCCNCCn1c2ccc3ccccc3c2c2nc3ccccc3nc21 | 20
6 | CCN(CC)CCN1C(=O)/C(=N\NC(=O)CCN2CCCCC2)c2ccccc21 | 100
7 | c1ccc2c(c1)ccc1c2c2nc3ccccc3nc2n1CCN1CCCCC1 | 20
8 | CCN(CC)CCCn1c2ccccc2c2nc3ccccc3nc21 | 30
9 | CCN(CC)CCN1C(=O)/C(=N\NC(=O)CN2CCC(C)CC2)c2ccccc21 | 100
10 | CCCN(CCC)CCn1c2ccccc2c2nc3c(nc21)CCCC3 | 90
11 | O=C(Cn1c2ccccc2c2nc3ccccc3nc21)OCCN1CCOCC1 | 45
12 | c1ccc2nc3c(nc2c1)c1ccccc1n3CCOCCN1CCOCC1 | 50
13 | c1ccc2nc3c(nc2c1)c1ccccc1n3CCCCN1CCOCC1 | 35
14 | CCN(CC)CCCOC(=O)CCCn1c2ccccc2c2nc3ccccc3nc21 | 0
15 | CCN(CC)CCN1C(=O)/C(=N\NC(=O)CN2CCN(C)CC2)c2ccccc21 | 0
16 | CCN(CC)CCN1C(=O)/C(=N\NC(=O)CN2CCOCC2)c2ccccc21 | 8
17 | OCCNCCCn1c2ccccc2c2nc3ccccc3nc21 | 37
18 | CCN(CC)CCn1c2ccccc2c2nc3ccccc3nc21 | 90
19 | CC1CCCCN1CCn1c2ccc3ccccc3c2c2nc3ccccc3nc21 (configuration not stated) | 20
20 | OCCNCCCCn1c2ccccc2c2nc3ccccc3nc21 | 32
21 | OCCNCCn1c2ccccc2c2nc3ccccc3nc21 | 80
22 | CCN(CC)CCCCn1c2ccccc2c2nc3ccccc3nc21 | 10
23 | c1ccc2nc3c(nc2c1)c1ccccc1n3CCCN1CCCCC1 | 28
24 | CN1CCN(CCCn2c3ccccc3c3nc4ccccc4nc32)CC1 | 39
25 | c1ccc2c(c1)c1nc3c(nc1n2CCN1CCCCC1)CCCC3 | 65

Row | SMILES | Activity [%]
26 | c1ccc2nc3c(nc2c1)c1ccccc1n3CCCCCN1CCOCC1 | 77
27 | CN(C)CCOC(=O)Cn1c2ccccc2c2nc3ccccc3nc21 | 0
28 | CN(C)CCCNC(=O)CCCCCN1C(=O)c2cccc3cccc(c23)C1=O | 100
29 | CCN(CC)CCCOC(=O)Cn1c2ccccc2c2nc3ccccc3nc21 | 0
30 | O=C(CN1CCCCC1)N/N=C1/C(=O)Nc2ccc3ccccc3c21 | 10
31 | CN1CCN(CCCCn2c3ccccc3c3nc4ccccc4nc32)CC1 | 10
32 | c1ccc2c(c1)c1nc3c(nc1n2CCN1CCOCC1)CCCC3 | 66
33 | CCN(CC)CCN1C(=O)/C(=N\NC(=O)CCN2CCN(C)CC2)c2ccccc21 | 100
34 | c1ccc2nc3c(nc2c1)c1ccccc1n3CCCCCCN1CCOCC1 | 6
35 | c1ccc2c(c1)ccc1c2c2nc3ccccc3nc2n1CCN1CCOCC1 | 10
36 | CC1CCCCN1CCCn1c2ccccc2c2nc3ccccc3nc21 (configuration not stated) | 56
37 | CCN(CC)CC(=O)N/N=C1/C(=O)Nc2ccc3ccccc3c21 | 30
38 | CN(C)CCCCCCn1c2ccccc2c2nc3ccccc3nc21 | 82
39 | O=C(CCN1CCCCC1)N/N=C1\C(=O)Nc2ccccc21 | 0
40 | c1ccc2nc3c(nc2c1)c1ccccc1n3CCN1CCCC1 | 85
41 | c1ccc2nc3c(nc2c1)c1ccccc1n3CCN1CCCCCC1 | 90
42 | O=C(CN1CCCCCC1)N/N=C1\C(=O)Nc2ccccc21 | 80
43 | CCN(CC)CCOC(=O)CCCn1c2ccccc2c2nc3ccccc3nc21 | 0
44 | CN1CCN(CC(=O)N/N=C2\C(=O)Nc3ccccc32)CC1 | 80
45 | O=C(CCN1C(=O)c2cccc3cccc(c23)C1=O)NCCN1CCOCC1 | 5
46 | CC1CCN(CCCn2c3ccccc3c3nc4ccccc4nc32)CC1 | 74
47 | CCN(CC)CCNC(=O)CCN1C(=O)c2cccc3cccc(c23)C1=O | 20
48 | CCN(CC)CCCCCCn1c2ccccc2c2nc3ccccc3nc21 | 75
49 | CC1CCN(CC(=O)N/N=C2\C(=O)Nc3ccccc32)CC1 | 60
50 | c1ccc2nc3c(nc2c1)c1ccccc1n3CCOCCN1CCCCC1 | 51

organism: Bos taurus; test: Displacement of ethidium bromide from calf thymus DNA by fluorescence binding assay

Row | SMILES | log Ka
51 | O=C(CN1CCOCC1)N/N=C1/C(=O)Nc2ccc3ccccc3c21 | 6.76
52 | CN1CCN(CCn2c3ccc4ccccc4c3c3nc4ccccc4nc32)CC1 | 6.58
53 | CN(C)CCn1c2ccc3ccccc3c2c2nc3ccccc3nc21 | 6.94
54 | CN(C)CCOCCn1c2ccccc2c2nc3ccccc3nc21 | 5.59
55 | OCCNCCn1c2ccc3ccccc3c2c2nc3ccccc3nc21 | 6.8
56 | CCN(CC)CCN1C(=O)/C(=N\NC(=O)CCN2CCCCC2)c2ccccc21 | 5.39
57 | c1ccc2c(c1)ccc1c2c2nc3ccccc3nc2n1CCN1CCCCC1 | 6.61
58 | CCN(CC)CCCn1c2ccccc2c2nc3ccccc3nc21 | 6.11
59 | CCN(CC)CCN1C(=O)/C(=N\NC(=O)CN2CCC(C)CC2)c2ccccc21 | 6.47
60 | O=C(Cn1c2ccccc2c2nc3ccccc3nc21)OCCN1CCOCC1 | 5.18
61 | c1ccc2nc3c(nc2c1)c1ccccc1n3CCOCCN1CCOCC1 | 5.32
62 | c1ccc2nc3c(nc2c1)c1ccccc1n3CCCCN1CCOCC1 | 5.94
63 | CCN(CC)CCCOC(=O)CCCn1c2ccccc2c2nc3ccccc3nc21 | 5.29
64 | CCN(CC)CCN1C(=O)/C(=N\NC(=O)CN2CCN(C)CC2)c2ccccc21 | 5.99
65 | CCN(CC)CCN1C(=O)/C(=N\NC(=O)CN2CCOCC2)c2ccccc21 | 6.21
66 | OCCNCCCn1c2ccccc2c2nc3ccccc3nc21 | 6.4
67 | CCN(CC)CCn1c2ccccc2c2nc3ccccc3nc21 | 6.07
68 | CC1CCCCN1CCn1c2ccc3ccccc3c2c2nc3ccccc3nc21 (configuration not stated) | 6.83
69 | OCCNCCCCn1c2ccccc2c2nc3ccccc3nc21 | 5.96
70 | OCCNCCn1c2ccccc2c2nc3ccccc3nc21 | 6.31
71 | CCN(CC)CCCCn1c2ccccc2c2nc3ccccc3nc21 | 6.22
72 | c1ccc2nc3c(nc2c1)c1ccccc1n3CCCN1CCCCC1 | 6.04
73 | CN1CCN(CCCn2c3ccccc3c3nc4ccccc4nc32)CC1 | 6.37
74 | c1ccc2nc3c(nc2c1)c1ccccc1n3CCCCCN1CCOCC1 | 5.73

Row | SMILES | log Ka
75 | CN(C)CCOC(=O)Cn1c2ccccc2c2nc3ccccc3nc21 | 5.46
76 | CN(C)CCCNC(=O)CCCCCN1C(=O)c2cccc3cccc(c23)C1=O | 6.1
77 | CCN(CC)CCCOC(=O)Cn1c2ccccc2c2nc3ccccc3nc21 | 5.17
78 | O=C(CN1CCCCC1)N/N=C1/C(=O)Nc2ccc3ccccc3c21 | 6.21
79 | CN1CCN(CCCCn2c3ccccc3c3nc4ccccc4nc32)CC1 | 6.04
80 | CCN(CC)CCN1C(=O)/C(=N\NC(=O)CCN2CCN(C)CC2)c2ccccc21 | 6.15
81 | c1ccc2nc3c(nc2c1)c1ccccc1n3CCCCCCN1CCOCC1 | 5.73
82 | c1ccc2c(c1)ccc1c2c2nc3ccccc3nc2n1CCN1CCOCC1 | 6.94
83 | CC1CCCCN1CCCn1c2ccccc2c2nc3ccccc3nc21 (configuration not stated) | 6.28
84 | CCN(CC)CC(=O)N/N=C1/C(=O)Nc2ccc3ccccc3c21 | 6.3
85 | CN(C)CCCCCCn1c2ccccc2c2nc3ccccc3nc21 | 5.81
86 | O=C(CCN1CCCCC1)N/N=C1\C(=O)Nc2ccccc21 | 5.92
87 | c1ccc2nc3c(nc2c1)c1ccccc1n3CCN1CCCC1 | 6.05
88 | c1ccc2nc3c(nc2c1)c1ccccc1n3CCN1CCCCCC1 | 6.16
89 | O=C(CN1CCCCCC1)N/N=C1\C(=O)Nc2ccccc21 | 5.49
90 | CCN(CC)CCOC(=O)CCCn1c2ccccc2c2nc3ccccc3nc21 | 5.45
91 | CN1CCN(CC(=O)N/N=C2\C(=O)Nc3ccccc32)CC1 | 5.43
92 | O=C(CCN1C(=O)c2cccc3cccc(c23)C1=O)NCCN1CCOCC1 | 5.78
93 | CC1CCN(CCCn2c3ccccc3c3nc4ccccc4nc32)CC1 | 6.07
94 | CCN(CC)CCNC(=O)CCN1C(=O)c2cccc3cccc(c23)C1=O | 5.85
95 | CCN(CC)CCCCCCn1c2ccccc2c2nc3ccccc3nc21 | 5.65
96 | CC1CCN(CC(=O)N/N=C2\C(=O)Nc3ccccc32)CC1 | 5.4
97 | c1ccc2nc3c(nc2c1)c1ccccc1n3CCOCCN1CCCCC1 | 5.19

From ChEMBL document CHEMBL4052722, “Virtual screening, synthesis and biological evaluation of DNA intercalating antiviral agents” (Bioorg Med Chem Lett, 2017)
